Laboratory results taken from ChEMBL document CHEMBL3785048, “Effects of polar receptor agonists designed for the periphery on ATP-induced Ca2+release from keratinocytes” (Medchemcomm, 2016).
The source made the active and inactive calls. The calls are words filed in the database; no cut-off is given here.

What was measured:
[1] = Distribution coefficient, logD between n-octonol and aqueous MOPS buffer at pH 7.4 by LC-MS analysis detection based shake flask method; format: physicochemical; conditions: n-octanol/aqueous MOPS buffer
[2] = Distribution coefficient, logD between n-octonol and aqueous PBS buffer at pH 5.4 by LC-MS analysis detection based shake flask method; format: physicochemical; conditions: n-octanol/aqueous PBS buffer
[3] = molecular target: T1, Kappa-type opioid receptor (Homo sapiens, UniProt P41145); experiment: Agonist activity at kappa opioid receptor in ATP stimulated human HaCaT cells assessed as reduction in intracellular Ca2+ release at 1 uM after 45 mins by FURA-2AM dye based luminescence spectrophotometry method; format: functional, cell-based
T1 sequence (P41145 whole entry): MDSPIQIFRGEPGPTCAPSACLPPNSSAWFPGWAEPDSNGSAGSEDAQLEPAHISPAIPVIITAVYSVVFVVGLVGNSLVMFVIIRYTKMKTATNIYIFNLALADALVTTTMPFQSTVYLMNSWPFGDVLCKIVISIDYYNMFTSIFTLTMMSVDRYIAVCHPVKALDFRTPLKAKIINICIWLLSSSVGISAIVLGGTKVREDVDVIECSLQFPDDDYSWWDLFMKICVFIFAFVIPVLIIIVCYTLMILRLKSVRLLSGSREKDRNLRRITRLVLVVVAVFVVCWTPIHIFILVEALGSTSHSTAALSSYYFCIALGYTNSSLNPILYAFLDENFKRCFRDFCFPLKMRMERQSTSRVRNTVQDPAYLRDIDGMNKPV

[4] = molecular target: T1, Kappa-type opioid receptor; experiment: Agonist activity at human kappa opioid receptor expressed in HEK-293 cells after 45 mins by [35S]GTP-gamma-S binding assay in presence of 10 uM of GDP; format: cell-based, HEK293
Rattus norvegicus = organism: Rattus norvegicus; experiment: Displacement of [3H]DTG from rat sigma2 receptor at 10 uM after 120 mins by liquid scintillation counting method
Sus scrofa = organism: Sus scrofa; experiment: Displacement of [3H]MK-801 from pig N-methyl D-aspartate receptor phencyclidine binding site at 10 uM after 150 min by liquid scintillation counting method
CHO-K1 [5] = experiment: Selectivity index, ratio of Ki for human mu opioid receptor expressed in CHO-K1 cells to Ki for human kappa opioid receptor expressed on HEK-293 cells; format: cell-based
CHO-K1 [6] = experiment: Selectivity index, ratio of Ki for human mu opioid receptor expressed in CHO-K1 cells to guinea pig kappa opioid receptor; format: cell-based
CHO-K1 [7] = experiment: Selectivity index, ratio of Ki for human delta opioid receptor expressed in CHO-K1 cells to Ki for human kappa opioid receptor expressed on HEK-293 cells; format: cell-based
CHO-K1 [8] = experiment: Selectivity index, ratio of Ki for human delta opioid receptor expressed in CHO-K1 cells to guinea pig kappa opioid receptor; format: cell-based
[9] = molecular target: T1, Kappa-type opioid receptor; experiment: Agonist activity at human kappa opioid receptor expressed in HEK-293 cells after 45 mins by [35S]GTP-gamma-S binding assay in presence of 10 uM of GDP relative to U-69,593; format: cell-based; conditions: HEK293
[10] = molecular target: T1, Kappa-type opioid receptor; experiment: biochemical; format: cell-based, HEK293
Description: Displacement of [3H]Cl-977 from human kappa opioid receptor expressed on HEK-293 cells by liquid scintillation counting method

Mu-type opioid receptor = Mu-type opioid receptor (Homo sapiens, UniProt P35372); experiment: biochemical; format: cell-based, CHO-K1
Mu-type opioid receptor, sequence (P35372 whole entry): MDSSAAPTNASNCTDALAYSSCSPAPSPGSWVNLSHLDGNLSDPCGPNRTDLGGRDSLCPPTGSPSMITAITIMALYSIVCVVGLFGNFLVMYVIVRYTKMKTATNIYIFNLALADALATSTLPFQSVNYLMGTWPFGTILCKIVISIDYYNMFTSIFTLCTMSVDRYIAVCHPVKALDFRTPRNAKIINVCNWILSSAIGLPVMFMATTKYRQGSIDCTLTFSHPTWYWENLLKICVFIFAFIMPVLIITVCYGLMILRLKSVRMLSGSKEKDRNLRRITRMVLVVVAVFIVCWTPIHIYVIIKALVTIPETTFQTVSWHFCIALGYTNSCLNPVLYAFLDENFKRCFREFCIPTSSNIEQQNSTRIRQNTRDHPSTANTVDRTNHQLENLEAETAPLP

[11] = molecular target: Delta-type opioid receptor (Homo sapiens) (UniProt P41143); experiment: Displacement of [3H]deltrophine from human delta opioid receptor expressed in CHO-K1 cells at 10 uM after 150 mins by liquid scintillation counting method; format: cell-based
Delta-type opioid receptor (Homo sapiens), sequence (P41143 whole entry): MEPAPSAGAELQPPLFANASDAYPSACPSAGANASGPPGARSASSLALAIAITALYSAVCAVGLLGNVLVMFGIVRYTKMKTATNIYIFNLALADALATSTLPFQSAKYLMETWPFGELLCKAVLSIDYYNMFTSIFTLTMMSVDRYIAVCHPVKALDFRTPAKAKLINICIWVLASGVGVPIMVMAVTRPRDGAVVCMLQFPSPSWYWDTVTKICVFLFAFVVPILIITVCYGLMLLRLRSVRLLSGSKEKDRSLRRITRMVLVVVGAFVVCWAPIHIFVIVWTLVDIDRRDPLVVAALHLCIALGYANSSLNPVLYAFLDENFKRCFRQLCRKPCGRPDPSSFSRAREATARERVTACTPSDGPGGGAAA

[12] = molecular target: Sigma non-opioid intracellular receptor 1 (Cavia porcellus) (UniProt Q60492); experiment: Displacement of [3H]-(+)-pentazocine from guinea pig Sigma1-receptor at 10 uM after 120 mins by liquid scintillation counting method
Sigma non-opioid intracellular receptor 1 (Cavia porcellus), sequence (Q60492 whole entry): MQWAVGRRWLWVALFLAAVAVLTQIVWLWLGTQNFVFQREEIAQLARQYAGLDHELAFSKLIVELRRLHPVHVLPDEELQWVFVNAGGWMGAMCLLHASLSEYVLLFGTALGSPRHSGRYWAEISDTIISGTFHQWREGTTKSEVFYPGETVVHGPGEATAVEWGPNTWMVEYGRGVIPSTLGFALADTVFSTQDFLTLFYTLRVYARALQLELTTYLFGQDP

[13] = molecular target: Kappa-type opioid receptor (Cavia porcellus, UniProt P41144); experiment: Displacement of [3H]U-69,593 from kappa opioid receptor in guinea pig brain membarnes by liquid scintillation counting method
Kappa-type opioid receptor (Cavia porcellus, UniProt P41144), sequence (P41144 whole entry): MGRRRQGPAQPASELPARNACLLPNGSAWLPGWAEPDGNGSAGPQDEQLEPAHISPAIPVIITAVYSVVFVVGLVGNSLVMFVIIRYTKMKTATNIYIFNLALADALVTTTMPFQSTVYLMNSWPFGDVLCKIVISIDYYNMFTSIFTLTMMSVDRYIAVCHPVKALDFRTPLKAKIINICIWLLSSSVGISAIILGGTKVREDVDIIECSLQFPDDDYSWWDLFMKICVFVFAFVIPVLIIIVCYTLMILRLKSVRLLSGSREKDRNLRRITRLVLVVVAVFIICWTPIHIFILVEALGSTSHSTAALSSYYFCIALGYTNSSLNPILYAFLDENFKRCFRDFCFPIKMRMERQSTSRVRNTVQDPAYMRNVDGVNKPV

Compound | logD [1] | logD [2] | inhibition [3] | EC50 [4] [µM] | inhibition (Rattus norvegicus) [%] | inhibition (Sus scrofa) | Ratio Ki (CHO-K1 [5]) | Ratio Ki (CHO-K1 [6]) | Ratio Ki (CHO-K1 [7]) | Ratio Ki (CHO-K1 [8]) | Intrinsic activity [9] [%] | Ki [10] [µM] | Ki (Mu-type opioid receptor) [µM] | inhibition [11] [%] | inhibition [12] [%] | Ki [13] [µM]
COC(=O)N1CCN(C(=O)Cc2ccc(Cl)c(Cl)c2)C2C(N3CCCC3)CCCC21 (stereo not drawn) | 1.29 | 0.39 |  |  |  |  |  |  |  |  |  |  |  |  |  | 
CN(C(=O)/C=C/c1ccoc1)[C@@H]1CC[C@@]2(O)[C@H]3Cc4ccc(O)c5c4[C@@]2(CCN3CC2CC2)[C@H]1O5 |  |  | 40% |  |  |  |  |  |  |  |  |  |  |  |  | 
O=C(Cc1ccc(Cl)c(Cl)c1)N1CCNC2CCCC(N3CCC(O)C3)C21 (mixture of isomers) | 0.23 | -2.47 |  |  |  |  |  |  |  |  |  |  |  |  |  | 
COC(=O)N1CCN(C(=O)Cc2ccc(Cl)c(Cl)c2)C2C(N3CCC(O)C3)CCCC21 (mixture of isomers) | 1.31 | 0.04 | Active | 0.079 |  |  |  |  |  |  |  |  |  |  |  | 
O=C(Cc1ccc(Cl)c(Cl)c1)N1CCN(Cc2cccnc2)C2CCCC(N3CCC(O)C3)C21 (mixture of isomers) | 1.26 | -0.39 | Active |  | 23 | inactive | 100 | 1000 | 100 | 1000 | 100 | 0.031 | 3.48 | 35 | 10 | 
O=C(Cc1ccc(Cl)c(Cl)c1)N1CCN(Cc2cccnc2)C2CCCC(N3CCCC3)C21 (racemic) | 1.1 | -0.45 | Active |  | 1 | inactive | 100 | > 10000 | 100 | > 10000 | 100 | 0.022 | 2.46 | 40 | 20 | 0.00013
